Entries after “also recorded” stand apart in the source; their conditions may differ. Where a SMILES comes first, the peptide text is derived from it. The star is where a group is joined. Cbz = O=C(OCc1ccccc1)*; CH2F = FC*
Key:
Type in all cases: cell-based
[1] = test system: Hela cells; experiment: IF time-lapse videomicroscopy of transfected Hela cells (apoptosis, vesicle formation, compensatory proliferation signaling); conditions: cells pre-treated with Z-VAD prior to transfection
[2] = test system: Hela cells; experiment: Vesicle production in 16K fraction of serum-starved Hela cells (Crkl Western blot, lipid content); conditions: Z-VAD pretreatment; Crkl level and lipid content of 16K fraction
Description: (§1) (FIG. 2A) Hela cells either received 10% serum (Mock) or were induced to undergo apoptosis by serum-starvation in the presence or absence of Z-VAD. 24 h after serum starvation, apoptotic cell death was assessed by flow cytometry and the tabulated results from 3 independent experiments are shown in (FIG. 2B). (*** p<0.001, One-way ANOVA). (FIGS. 2C-21) Supernatants from the indicated cultures were fractionated by differential centrifugation and evaluated for their Crkl-containing microvesicles (ACPSVs) and CPS. (FIG. 2C) ACPSVs in the 16K fraction of apoptotic cells were visualized by DIC. (FIG. 2D) Vesicle size distribution was determined and plotted (Mean size±S.D.=1.76±1.04 μm, n=822). […] (FIG. 2H) The lipid contents of the vesicles in the 16K fractions of the indicated cultures were measured and the tabulated data from 3 experiments are shown. […] (FIG. 2I) Hela cells were treated with 16K fractions of serum-fed healthy (Mock), serum-starved apoptotic (Apop.), or Z-VAD treated serum-starved (Apop.+Z-VAD) and the proliferation levels were determined by cell count 24 h after treatment. […] 24 h after serum starvation, cells were fixed and analyzed by SEM. […] Five hours after vesicle addition, the fractions of mitotic cells, with no vesicle (NV); with ACPSV only (+AC); with apoptotic body only (+AB); or with a combination of vesicles (+Mix) were assessed by SEM. […]

[3] = test system: Hela cells; experiment: Apoptotic cell death of serum-starved Hela cells by flow cytometry; conditions: Z-VAD pretreatment; 24 h serum starvation
Description: as §1

[4] = test system: human epithelial keratinocytes (HEK); experiment: Anoikis apoptosis, vesicle formation and CPS of HEK cells grown in suspension media; conditions: 60 μm Z-VAD
Description: HEK primary cells also product Crkl-containing vesicles which mediate CPS in other cells. (FIG. 8A) HEK cells were cultured either seeded (Mock) or induced to undergo anoikis apoptosis by culturing them in suspension media in the presence or absence of Z-VAD. (FIGS. 8A-8B) Supernatants from the indicated cultures were fractionated, as in FIG. 2, and their 16K fractions were evaluated for ACPSV production by Western blotting, using Crkl as a marker for vesicles, whose expression from 3 experiments was evaluated by densitometer and plotted below (FIG. 8A) or by lipid content measurements from 3 experiments in FIG. 8B. (n=3, * p≤ 0.05, ** p≤ 0.01, *** p≤ 0.001, one-way ANOVA). (FIG. 8C) ACPSVs in 16K fraction of apoptotic HEK cells were visualized by DIC. Similar to HeLa and B16 cells, vesicles from apoptotic HEK cells were globular and ranged between 1-1.8 micron in diameter. (FIG. 8D) HEK cells were treated with vesicles (16K fractions) harvested from HEK seeded healthy (Mock) cultures, or HEK grown in suspension media (Apop.), or HEK grown in suspension media in the presence of Z-VAD (Apop.+Z-VAD). 24 h after treatment, the proliferation levels were determined by cell counts and the tabulated data from 3 independent experiments were shown as the Mean±S.D. (** p<0.01, *** p≤ 0.001, one-way ANOVA). […]

[5] = test system: Hela cells; experiment: Proliferation assay by cell counts, adherent Hela cells treated with 16K fraction vesicles; conditions: 16K fraction of Z-VAD treated serum-starved Hela cells; cell count 24 h
Description: Generation and Purification of ACPSVs: 7.5×10^6 cells were cultured in 150 mm^2 flasks (TPP) overnight in 25 mL of indicated media. Next day, cells were induced to undergo intrinsic apoptosis by serum-starvation, extrinsic apoptosis apoptosis by treatment with anti-Fas mAb (abcam-ab11881), or anoikis apoptosis by growing the cells detached from the surface in suspension media in Thermo Scientific Nunclon Sphera plates, in the presence or absence of Z-VAD. 24 to 48 h after induction of apoptosis, culture supernatants from serum-fed healthy (Mock) and apoptotic cells were collected and subjected to differential centrifugation. […] The proliferation-inducing effect associated with each fraction was determined by cell counts after growing recipient cells for 24 h at 37° C. in the presence of 5% CO2, using a hemocytometer after trypsin digestion.
Proliferation Assay. […] The next day at the time of treatment with vesicles, the initial cell number per well (0 h) was determined by trypsin digestion and cell counts using a hemocytometer. […] Proliferation rates were determined blindly by cell counts determination using a hemocytometer.

CC(NC(=O)C(NC(=O)OCc1ccccc1)C(C)C)C(=O)NC(CC(=O)O)C(=O)CF (stereo not drawn) [Z-VAD] (Cbz-Val-Ala-Asp-CH2F; configuration not given here)
ACPSV formation and release from Crkl-GFP transfected Hela cells [1]: inhibits apoptosis and vesicle formation; also recorded: not formed or released | vesicle production in serum-starved cells [2]: significantly reduced | apoptosis in serum-starved Hela cells [3]: significantly reduced | apoptosis in HEK cells grown in suspension media [4]: significantly reduced | vesicle formation and CPS in HEK cells grown in suspension media [4]: prevented | CPS in recipient cells [5]: abrogated

Source: patent US12076341B2, “Use of apoptotic compensatory proliferation signaling vesicles in tissue repair and wound healing” (Rush University Medical Center, priority 2018, dated 2024)
